From the supplement of paper PMC10307832

How the values were obtained:
Assay in all cases: relative viability (nuclei count vs DMSO), 5 days (fraction); higher = more cells survive
[1] = system: SW 1573
Outline: (§1)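 After 5 days of treatment, lung cancer cells in 1536-well plates were fixed and stained in a single step (final 0.05% Triton X-100, 1% formaldehyde, 1 ug/ml Hoechst) and their nuclei counted on 4× images. Treatment had been applied by pin tool the day after seeding as one drug alone or as a fixed anchor-drug dose with five library-drug doses (not always all listed) in √10 steps. Relative viability is the nuclei count of treated wells divided by that of vehicle wells, and values are medians of duplicate plates.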

[2] = system: ABC-1
Outline: as §1

[3] = system: ChaGo-K-1
Outline: as §1

[4] = system: HCC-44
Outline: as §1

[5] = system: NCI-H2228
Outline: as §1

[6] = system: NCI-H2405
Outline: as §1

[7] = system: HCC-366
Outline: as §1

[8] = system: NCI-H2347
Outline: as §1

[9] = system: NCI-H3122
Outline: as §1

[10] = system: HCC-827
Outline: as §1

[11] = system: HCC-15
Outline: as §1

[12] = system: NCI-H1944
Outline: as §1

[13] = system: NCI-H1355
Outline: as §1

[14] = system: NCI-H2085
Outline: as §1

[15] = system: COR-L23
Outline: as §1

[16] = system: PC-14
Outline: as §1

[17] = system: EPLC-272H
Outline: as §1

[18] = system: NCI-H2023
Outline: as §1

[19] = system: LCLC-103H
Outline: as §1

[20] = system: NCI-H1734
Outline: as §1

[21] = system: NCI-H2009
Outline: as §1

SMILES: CCNC(=O)c1noc(-c2cc(C(C)C)c(O)cc2O)c1-c1ccc(CN2CCOCC2)cc1 [Luminespib] + C[C@@H](Oc1cc(-c2cnn(C3CCNCC3)c2)cnc1N)c1c(Cl)ccc(F)c1Cl [Crizotinib] (partner 1 µM)
- relative viability ([1]; first compound 0.002 µM): 0.833
- relative viability ([1]; first compound 0.006325 µM): 0.853
- relative viability ([1]; first compound 0.02 µM): 0.757
- relative viability ([1]; first compound 0.06325 µM): 0.191
- relative viability ([1]; first compound 0.2 µM): 0.0946
- relative viability ([2]; first compound 0.002 µM): 1.55
- relative viability ([2]; first compound 0.006325 µM): 0.877
- relative viability ([2]; first compound 0.02 µM): 1.06
- relative viability ([2]; first compound 0.06325 µM): 0.19
- relative viability ([2]; first compound 0.2 µM): 0.18
- relative viability ([3]; first compound 0.002 µM): 1.23
- relative viability ([3]; first compound 0.02 µM): 1.01
- relative viability ([3]; first compound 0.06325 µM): 0.562
- relative viability ([3]; first compound 0.2 µM): 0.301
- relative viability ([4]; first compound 0.002 µM): 0.843
- relative viability ([4]; first compound 0.006325 µM): 0.768
- relative viability ([4]; first compound 0.02 µM): 1
- relative viability ([4]; first compound 0.06325 µM): 0.12
- relative viability ([4]; first compound 0.2 µM): 0.091
- relative viability ([5]; first compound 0.002 µM): 0.47
- relative viability ([5]; first compound 0.006325 µM): 0.514
- relative viability ([5]; first compound 0.02 µM): 0.264
- relative viability ([5]; first compound 0.06325 µM): 0.161
- relative viability ([5]; first compound 0.2 µM): 0.148
- relative viability ([6]; first compound 0.002 µM): 0.829
- relative viability ([6]; first compound 0.006325 µM): 0.644
- relative viability ([6]; first compound 0.02 µM): 0.705
- relative viability ([6]; first compound 0.06325 µM): 0.615
- relative viability ([6]; first compound 0.2 µM): 0.257
- relative viability ([7]; first compound 0.002 µM): 0.695
- relative viability ([7]; first compound 0.006325 µM): 0.659
- relative viability ([7]; first compound 0.02 µM): 0.549
- relative viability ([7]; first compound 0.06325 µM): 0.0174
- relative viability ([7]; first compound 0.2 µM): 0.0135
- relative viability ([8]; first compound 0.002 µM): 0.701
- relative viability ([8]; first compound 0.02 µM): 0.625
- relative viability ([8]; first compound 0.06325 µM): 0.315
- relative viability ([8]; first compound 0.2 µM): 0.311
- relative viability ([9]; first compound 0.002 µM): 0.278
- relative viability ([9]; first compound 0.006325 µM): 0.267
- relative viability ([9]; first compound 0.02 µM): 0.222
- relative viability ([9]; first compound 0.06325 µM): 0.181
- relative viability ([9]; first compound 0.2 µM): 0.165
- relative viability ([10]; first compound 0.002 µM): 0.944
- relative viability ([10]; first compound 0.006325 µM): 0.899
- relative viability ([10]; first compound 0.02 µM): 0.887
- relative viability ([10]; first compound 0.06325 µM): 0.952
- relative viability ([10]; first compound 0.2 µM): 0.879
- relative viability ([11]; first compound 0.002 µM): 0.836
- relative viability ([11]; first compound 0.006325 µM): 0.863
- relative viability ([11]; first compound 0.02 µM): 0.901
- relative viability ([11]; first compound 0.06325 µM): 0.473
- relative viability ([11]; first compound 0.2 µM): 0.412
- relative viability ([12]; first compound 0.002 µM): 1.08
- relative viability ([12]; first compound 0.006325 µM): 1.04
- relative viability ([12]; first compound 0.02 µM): 0.775
- relative viability ([12]; first compound 0.06325 µM): 0.955
- relative viability ([12]; first compound 0.2 µM): 0.97
- relative viability ([13]; first compound 0.002 µM): 1.1
- relative viability ([13]; first compound 0.006325 µM): 1.05
- relative viability ([13]; first compound 0.02 µM): 0.62
- relative viability ([13]; first compound 0.06325 µM): 1.08
- relative viability ([13]; first compound 0.2 µM): 1.08
- relative viability ([14]; first compound 0.002 µM): 1.04
- relative viability ([14]; first compound 0.006325 µM): 0.953
- relative viability ([14]; first compound 0.02 µM): 0.948
- relative viability ([14]; first compound 0.06325 µM): 0.383
- relative viability ([14]; first compound 0.2 µM): 0.272
- relative viability ([15]; first compound 0.002 µM): 0.806
- relative viability ([15]; first compound 0.006325 µM): 0.629
- relative viability ([15]; first compound 0.02 µM): 0.81
- relative viability ([15]; first compound 0.06325 µM): 0.0713
- relative viability ([15]; first compound 0.2 µM): 0.0608
- relative viability ([16]; first compound 0.002 µM): 0.973
- relative viability ([16]; first compound 0.006325 µM): 0.845
- relative viability ([16]; first compound 0.02 µM): 1.12
- relative viability ([16]; first compound 0.06325 µM): 0.171
- relative viability ([16]; first compound 0.2 µM): 0.102
- relative viability ([17]; first compound 0.006325 µM): 0.892
- relative viability ([17]; first compound 0.02 µM): 0.655
- relative viability ([17]; first compound 0.06325 µM): 0.88
- relative viability ([17]; first compound 0.2 µM): 0.917
- relative viability ([18]; first compound 0.002 µM): 0.772
- relative viability ([18]; first compound 0.006325 µM): 0.586
- relative viability ([18]; first compound 0.02 µM): 0.569
- relative viability ([18]; first compound 0.06325 µM): 0.0759
- relative viability ([18]; first compound 0.2 µM): 0.0557
- relative viability ([19]; first compound 0.002 µM): 1.02
- relative viability ([19]; first compound 0.006325 µM): 1.04
- relative viability ([19]; first compound 0.02 µM): 0.908
- relative viability ([19]; first compound 0.06325 µM): 1.02
- relative viability ([19]; first compound 0.2 µM): 1.15
- relative viability ([20]; first compound 0.002 µM): 0.77
- relative viability ([20]; first compound 0.006325 µM): 0.612
- relative viability ([20]; first compound 0.02 µM): 0.566
- relative viability ([20]; first compound 0.06325 µM): 0.135
- relative viability ([20]; first compound 0.2 µM): 0.0997
- relative viability ([21]; first compound 0.002 µM): 1.14
- relative viability ([21]; first compound 0.006325 µM): 0.918
- relative viability ([21]; first compound 0.02 µM): 1.04
- relative viability ([21]; first compound 0.06325 µM): 0.0632
- relative viability ([21]; first compound 0.2 µM): 0.0663
